According to US9580444B2, “Polycyclic pyrazolinone derivative and herbicide comprising same as effective component thereof” (priority 2013, dated 2017):

Legend:
Format in all cases: in vivo
[1] = tested on: corn; experiment: Test Example-4: phytotoxicity by a foliage treatment after weeds are generated under upland field conditions; conditions: 500 g a.i/ha, foliage treatment after emergence, about 14 days after treatment, score 0-5
Summary of the method: (§1)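 Compounds were applied as diluted formulations by foliar spray (4000 L water/ha) to 14-day-old plants grown in upland soil. Weed control and corn phytotoxicity were each graded 0 to 5 around 14 days after spraying.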

[2] = tested on: Abutilon theophrasti (velvetleaf); experiment: Test Example-4: herbicidal effect by a foliage treatment after weeds are generated under upland field conditions; conditions: 500 g a.i/ha, foliage treatment after emergence, about 14 days after treatment, score 0-5
Summary of the method: as §1

[3] = tested on: Amaranthus viridis (green amaranthus); experiment: as above; conditions: 500 g a.i/ha, foliage treatment after emergence, about 14 days after treatment, score 0-5
Summary of the method: as §1

[4] = tested on: Chenopodium album (common lambsquarters); experiment: as above; conditions: 500 g a.i/ha, foliage treatment after emergence, about 14 days after treatment, score 0-5
Summary of the method: as §1

[5] = tested on: Eleocharis acicularis (needle spikerush); experiment: Test Example-1: herbicidal effect by a treatment before weeds are generated under submerged conditions; conditions: 500 g a.i/ha, pre-emergence treatment, about 15 days after treatment, score 0-5
Summary of the method: (§2)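 Flooded paddy-soil cups, seeded and treated by submersion application on sowing day; rated 0–5 ~15 d later.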

[6] = tested on: other annual broad leaf weeds (Lindernia procumbens, Rotala indica, Elatine triandra); experiment: as above; conditions: 500 g a.i/ha, pre-emergence treatment, about 15 days after treatment, score 0-5
Summary of the method: as §2

[7] = tested on: Cyperus difformis (smallflower umbrella plant); experiment: as above; conditions: 500 g a.i/ha, pre-emergence treatment, about 15 days after treatment, score 0-5
Summary of the method: as §2

[8] = tested on: Scirpus juncoides (bulrush); experiment: as above; conditions: 500 g a.i/ha, pre-emergence treatment, about 15 days after treatment, score 0-5
Summary of the method: as §2

[9] = tested on: Echinochloa oryzicola (barnyard grass); experiment: as above; conditions: 500 g a.i/ha, pre-emergence treatment, about 15 days after treatment, score 0-5
Summary of the method: as §2

[10] = tested on: Monochoria vaginalis (monochoria); experiment: as above; conditions: 500 g a.i/ha, pre-emergence treatment, about 15 days after treatment, score 0-5
Summary of the method: as §2

Structure (SMILES)	Phytotoxicity Corn [1]	Herbicidal effect Abutilon theophrast [2]	Herbicidal effect Amaranthus viridis [3]	Herbicidal effect Chenopodium album [4]	Herbicidal effect Eleocharis acicularis [5]	Herbicidal effect Broadleaf weed [6]	Herbicidal effect Cyperus difformis [7]	Herbicidal effect Scirpus juncoides [8]	Herbicidal effect Echinochloa oryzicola [9]	Herbicidal effect Monochoria vaginalis [10]
O=c1c(-c2cc(OCC=Cc3ccc(F)cc3)c(Cl)cc2F)c(Cl)n2n1CCCC2 [Example 1-226]	3 (Herbicidal effect/phytotoxicity was 50% to 70%)	5 (Herbicidal effect/phytotoxicity was 90% or greater)	5 (Herbicidal effect/phytotoxicity was 90% or greater)	5 (Herbicidal effect/phytotoxicity was 90% or greater)	5 (Herbicidal effect/phytotoxicity was 90% or greater)	5 (Herbicidal effect/phytotoxicity was 90% or greater)	5 (Herbicidal effect/phytotoxicity was 90% or greater)	5 (Herbicidal effect/phytotoxicity was 90% or greater)	5 (Herbicidal effect/phytotoxicity was 90% or greater)	5 (Herbicidal effect/phytotoxicity was 90% or greater)
CC#CCOc1cc(-c2c(Cl)n3n(c2=O)CCCC3)c(F)cc1F [Example 1-115]	3 (Herbicidal effect/phytotoxicity was 50% to 70%)	5 (Herbicidal effect/phytotoxicity was 90% or greater)	5 (Herbicidal effect/phytotoxicity was 90% or greater)	5 (Herbicidal effect/phytotoxicity was 90% or greater)	5 (Herbicidal effect/phytotoxicity was 90% or greater)	5 (Herbicidal effect/phytotoxicity was 90% or greater)	5 (Herbicidal effect/phytotoxicity was 90% or greater)	5 (Herbicidal effect/phytotoxicity was 90% or greater)	5 (Herbicidal effect/phytotoxicity was 90% or greater)	5 (Herbicidal effect/phytotoxicity was 90% or greater)
O=c1c(-c2cc(OCc3ccc(F)cc3)c(Cl)cc2F)c(Cl)n2n1CCCC2 [Example 1-192]	1 (Herbicidal effect/phytotoxicity was 10% to 30%)	5 (Herbicidal effect/phytotoxicity was 90% or greater)	5 (Herbicidal effect/phytotoxicity was 90% or greater)	5 (Herbicidal effect/phytotoxicity was 90% or greater)	5 (Herbicidal effect/phytotoxicity was 90% or greater)	5 (Herbicidal effect/phytotoxicity was 90% or greater)	5 (Herbicidal effect/phytotoxicity was 90% or greater)	5 (Herbicidal effect/phytotoxicity was 90% or greater)	5 (Herbicidal effect/phytotoxicity was 90% or greater)	5 (Herbicidal effect/phytotoxicity was 90% or greater)
O=c1c(-c2cc(OC3CCCC3)c(Cl)cc2Cl)c(Cl)n2n1CCCC2 [Example 1-307]	0 (Herbicidal effect/phytotoxicity was 0% to 10%)	5 (Herbicidal effect/phytotoxicity was 90% or greater)	5 (Herbicidal effect/phytotoxicity was 90% or greater)	5 (Herbicidal effect/phytotoxicity was 90% or greater)	5 (Herbicidal effect/phytotoxicity was 90% or greater)	5 (Herbicidal effect/phytotoxicity was 90% or greater)	5 (Herbicidal effect/phytotoxicity was 90% or greater)	5 (Herbicidal effect/phytotoxicity was 90% or greater)	5 (Herbicidal effect/phytotoxicity was 90% or greater)	5 (Herbicidal effect/phytotoxicity was 90% or greater)
C=CCCOc1cc(-c2c(Cl)n3n(c2=O)CCCC3)c(F)cc1Cl [Example 1-222]	2 (Herbicidal effect/phytotoxicity was 30% to 50%)	5 (Herbicidal effect/phytotoxicity was 90% or greater)	5 (Herbicidal effect/phytotoxicity was 90% or greater)	5 (Herbicidal effect/phytotoxicity was 90% or greater)	5 (Herbicidal effect/phytotoxicity was 90% or greater)	5 (Herbicidal effect/phytotoxicity was 90% or greater)	5 (Herbicidal effect/phytotoxicity was 90% or greater)	5 (Herbicidal effect/phytotoxicity was 90% or greater)	5 (Herbicidal effect/phytotoxicity was 90% or greater)	5 (Herbicidal effect/phytotoxicity was 90% or greater)
COc1cc(-c2c(Cl)n3n(c2=O)CCCC3)c(F)cc1Cl [Example 1-140]	2 (Herbicidal effect/phytotoxicity was 30% to 50%)	5 (Herbicidal effect/phytotoxicity was 90% or greater)	5 (Herbicidal effect/phytotoxicity was 90% or greater)	5 (Herbicidal effect/phytotoxicity was 90% or greater)	5 (Herbicidal effect/phytotoxicity was 90% or greater)	5 (Herbicidal effect/phytotoxicity was 90% or greater)	5 (Herbicidal effect/phytotoxicity was 90% or greater)	5 (Herbicidal effect/phytotoxicity was 90% or greater)	5 (Herbicidal effect/phytotoxicity was 90% or greater)	5 (Herbicidal effect/phytotoxicity was 90% or greater)
Cc1cc(-c2c(Cl)n3n(c2=O)CCCC3)c(F)cc1Cl [Example 1-130]	1 (Herbicidal effect/phytotoxicity was 10% to 30%)	5 (Herbicidal effect/phytotoxicity was 90% or greater)	5 (Herbicidal effect/phytotoxicity was 90% or greater)	5 (Herbicidal effect/phytotoxicity was 90% or greater)	5 (Herbicidal effect/phytotoxicity was 90% or greater)	5 (Herbicidal effect/phytotoxicity was 90% or greater)	5 (Herbicidal effect/phytotoxicity was 90% or greater)	5 (Herbicidal effect/phytotoxicity was 90% or greater)	5 (Herbicidal effect/phytotoxicity was 90% or greater)	5 (Herbicidal effect/phytotoxicity was 90% or greater)
N#CCOc1cc(-c2c(Cl)n3n(c2=O)CCCC3)c(F)cc1Cl [Example 1-171]	3 (Herbicidal effect/phytotoxicity was 50% to 70%)	5 (Herbicidal effect/phytotoxicity was 90% or greater)	5 (Herbicidal effect/phytotoxicity was 90% or greater)	5 (Herbicidal effect/phytotoxicity was 90% or greater)	5 (Herbicidal effect/phytotoxicity was 90% or greater)	5 (Herbicidal effect/phytotoxicity was 90% or greater)	5 (Herbicidal effect/phytotoxicity was 90% or greater)	5 (Herbicidal effect/phytotoxicity was 90% or greater)	5 (Herbicidal effect/phytotoxicity was 90% or greater)	5 (Herbicidal effect/phytotoxicity was 90% or greater)
CC#CCOc1cc(-c2c(Cl)n3n(c2=O)CCCC3)c(F)cc1Cl [Example 1-246]	1 (Herbicidal effect/phytotoxicity was 10% to 30%)	5 (Herbicidal effect/phytotoxicity was 90% or greater)	5 (Herbicidal effect/phytotoxicity was 90% or greater)	5 (Herbicidal effect/phytotoxicity was 90% or greater)	5 (Herbicidal effect/phytotoxicity was 90% or greater)	5 (Herbicidal effect/phytotoxicity was 90% or greater)	5 (Herbicidal effect/phytotoxicity was 90% or greater)	5 (Herbicidal effect/phytotoxicity was 90% or greater)	5 (Herbicidal effect/phytotoxicity was 90% or greater)	5 (Herbicidal effect/phytotoxicity was 90% or greater)
O=c1c(-c2cc(OCC3CC3)c(Cl)cc2F)c(Cl)n2n1CCCC2 [Example 1-176]	2 (Herbicidal effect/phytotoxicity was 30% to 50%)	5 (Herbicidal effect/phytotoxicity was 90% or greater)	5 (Herbicidal effect/phytotoxicity was 90% or greater)	5 (Herbicidal effect/phytotoxicity was 90% or greater)	5 (Herbicidal effect/phytotoxicity was 90% or greater)	5 (Herbicidal effect/phytotoxicity was 90% or greater)	5 (Herbicidal effect/phytotoxicity was 90% or greater)	5 (Herbicidal effect/phytotoxicity was 90% or greater)	5 (Herbicidal effect/phytotoxicity was 90% or greater)	5 (Herbicidal effect/phytotoxicity was 90% or greater)
